# Test results taken from patent publication US7820817B2, “Modulators of muscarinic receptors” (Vertex Pharmaceuticals Incorporated, priority 2004, dated 2010).
# Test system: at least one muscarinic receptor, M1, M2, M3, M4
# Assay: Muscarinic modulation activity (Table 3)
# Assay type: cell-based
# Design: key: +++: exhibited muscarinic modulation activity for at least one muscarinic receptor, M1, M2, M3, M4, at a concentration of less than 5 μM; ++: exhibited muscarinic modulation activity for at least one muscarinic receptor, M1, M2, M3, M4, at a concentration of between 30 μM and 5 μM; +: exhibited muscarinic modulation activity for at least one muscarinic receptor, M1, M2, M3, M4, at a concentration of greater than 30 μM; −: were not assayed or did not exhibit muscarinic modulation activity for at least one muscarinic receptor, M1, M2, M3, M4, at the concentration at which the assay was performed
# Conditions: concentration at which modulation of at least one muscarinic receptor, M1, M2, M3, M4, was exhibited; CHO cells
# In short: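 CHO cells expressing M1–M5 loaded with Fluo-3 AM or Calcium 3 dye plus 1 mM probenecid; FLIPR fluorescence read for 60 sec after compound addition (agonist mode) or after 15 min pre-incubation then carbachol at EC80 (inhibition mode); 0.5% DMSO final.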
row,Compound,ACTIVITY (muscarinic modulation activity)
1,"CCOC(=O)N1C2CCC1CC(CN1CCN(c3nccnc3C#N)CC1)C2 (stereo not shown) [Compound 38, 3-[[4-(3-cyanopyrazin-2-yl)piperazin-1-yl]methyl]-8-azabicyclo[3.2.1]octane-8-carboxylic acid ethyl ester]","+++ (exhibited muscarinic modulation activity for at least one muscarinic receptor, M1, M2, M3, M4, at a concentration of less than 5 μM)"
2,"N#Cc1cccnc1N1CCN(CC2CC3C=CC2C3)CC1 (stereo not shown) [Compound 42, 2-[4-(5-bicyclo[2.2.1]hept-2-enylmethyl)piperazin-1-yl]nicotinonitrile]","+++ (exhibited muscarinic modulation activity for at least one muscarinic receptor, M1, M2, M3, M4, at a concentration of less than 5 μM)"
3,"N#Cc1nccnc1N1CCN(CC2CC3C=CC2C3)CC1 (stereo not shown) [Compound 70, 3-[4-(5-bicyclo[2.2.1]hept-2-enylmethyl)piperazin-1-yl]pyrazine-2-carbonitrile]","+++ (exhibited muscarinic modulation activity for at least one muscarinic receptor, M1, M2, M3, M4, at a concentration of less than 5 μM)"
4,"NC(=O)c1cccnc1N1CCN(CC2CC3C=CC2C3)CC1 (stereo not shown) [Compound 6, 2-[4-(5-bicyclo[2.2.1]hept-2-enylmethyl)piperazin-1-yl]nicotinamide]",−
5,"O=[N+]([O-])c1cccnc1N1CCN(CC2CC3C=CC2C3)CC1 (stereo not shown) [Compound 1, 1-(5-bicyclo[2.2.1]hept-2-enylmethyl)-4-(3-nitro-2-pyridyl)-piperazine]","++ (exhibited muscarinic modulation activity for at least one muscarinic receptor, M1, M2, M3, M4, at a concentration of between 30 μM and 5 μM)"
6,"CCOC(=O)N1C2CCC1CC(N1CCN(c3ccncc3S(N)(=O)=O)CC1)C2 (stereo not shown) [Compound 49, 3-[4-(3-sulfamoyl-4-pyridyl)piperazin-1-yl]-8-azabicyclo[3.2.1]octane-8-carboxylic acid ethyl ester]","+++ (exhibited muscarinic modulation activity for at least one muscarinic receptor, M1, M2, M3, M4, at a concentration of less than 5 μM)"
7,"N#Cc1ccc(C(F)(F)F)nc1N1CCN(CC2CC3CCC2C3)CC1 (stereo not shown) [Compound 8, 2-[4-(norbornan-2-ylmethyl)piperazin-1-yl]-6-(trifluoromethyl)nicotinonitrile]",−
8,"c1ccc(N2CCN(C3CC4CCC3C4)CC2)nc1 (stereo not shown) [Compound 65, 1-norbornan-2-yl-4-(2-pyridyl)piperazine]","++ (exhibited muscarinic modulation activity for at least one muscarinic receptor, M1, M2, M3, M4, at a concentration of between 30 μM and 5 μM)"
9,"O=[N+]([O-])c1cccnc1N1CCN(C2CC3CCC2C3)CC1 (stereo not shown) [Compound 5, 1-(3-nitro-2-pyridyl)-4-norbornan-2-yl-piperazine]","+ (exhibited muscarinic modulation activity for at least one muscarinic receptor, M1, M2, M3, M4, at a concentration of greater than 30 μM)"
10,"N#Cc1nccnc1N1CCN(C2CC3CCC2C3)CC1 (stereo not shown) [Compound 43, 3-(4-norbornan-2-ylpiperazin-1-yl)pyrazine-2-carbonitrile]",−
11,"c1cc(N2CCN(C3CC4CCC(C4)C3)CC2)ccn1 (stereo not shown) [Compound 35, 1-(3-bicyclo[3.2.1]octyl)-4-(4-pyridyl)piperazine]","++ (exhibited muscarinic modulation activity for at least one muscarinic receptor, M1, M2, M3, M4, at a concentration of between 30 μM and 5 μM)"
12,"Cc1cnc(C)c(N2CCN(C3CC4CCC3C4)CC2)n1 (stereo not shown) [Compound 40, 2,5-dimethyl-3-(4-norbornan-2-ylpiperazin-1-yl)-pyrazine]",−
13,"NC(=O)c1cccnc1N1CCN(C2CC3CCC2C3)CC1 (stereo not shown) [Compound 10, 2-(4-norbornan-2-ylpiperazin-1-yl)nicotinamide]",−
